According to patent publication US6887879B2, “Pharmaceutical combination of antiviral agents” (priority 1999, dated 2005):
Like-named read-outs stand apart in the source and are kept apart here.

Columns and labels:
[1] = tested on: HIV-1 clinical isolate 4246; test: Antiviral assay, HIV-1 clinical isolate 4246, CBMCs; type: cell-based; details: Human immunodeficiency virus 1, read-out: EC50 in CBMCs
Protocol: (§1) HIV-1IIIB laboratory strain and HXB2-D recombinant of HIV-1 were kindly supplied by R. C. Gallo (Institute of Human Virology, Baltimore, Md.). […] The recombinant viruses were generated by transfection of proviral DNA into MT-4 cells with Lipofectamine using the protocol recommended by the manufacturer .(Gibco BRL, Montreal, Canada). […] Stock viruses were prepared from clarified culture supernatants by centrifugation and stored at −70° C. The viruses were titrated by limited dilution with a 4-fold serial dilution.
(§2) The population of HIV-1 in infected individual is quasispecies and the sensitivity of these different viruses found in clinical isolates to antiviral chemotherapy might be quite variable. In addition, HIV-1 isolates obtained from patients receiving long-term antiretroviral therapy might behave differently from cloned virus containing genetically engineered mutations in the RT gene. For these reasons, clinical isolates of HIV-1 from antiviral naive and drug-treated patients were assayed in PHA-stimulated CBMCs for their sensitivity to DXG and DAPD accompanied with approved antiretroviral agents. The genotype of the HIV-1 clinical isolates were determined as described above.

[2] = Cytotoxicity, [3H]-thymidine uptake, HepG2; type: cell-based; details: human, HepG2 cells
Protocol: (§3) The cellular toxicity of the BCH compounds were assessed on various cells using [^3H]-thymidine uptake. The various cells, including Molt-4, HT1080, DU-145, HepG 2 and HSF, were plated at a concentration of 1-2×10^3 cells per well (96 well plates). However, PHA-stimulated PBMCs were cultured at a concentration of 4×10^4. After a 24 hr incubation period, 10-fold serial diluted compounds (10^−4 M to 10^−10 M) were added to the culture medium and the cells were further incubated for 72 hrs. [^3H]-thymidine was added during the final 18 hr incubation period. After incubation with the [^3H]-thymidine, the cells were washed once with PBS, treated with trypsin it the cells were adherent, and then resuspended in water (hypotonic lysing of cells) The cellular extract was applied directly to a Tomtec Harvester 96. Using this instrument the extracted DNA is adsorbed onto filters, washed and the incorporated [^3H]-thymidine is then counted.

recombinant HXB2-D 65R = test: microbe, parasite or virus in culture; type: cell-based, HIV-1; details: Human immunodeficiency virus 1, HXB2, read-out: EC50 in CBMCs
Protocol: as §1

[3] = tested on: recombinant HXB2-D 41L/70R/215Y/219Q; test: microbe, parasite or virus in culture; type: cell-based, HIV-1; details: for sensitivity of AZT resistant virus, in words: 41L, 70R, 215Y and 219Q, CBMCs, also observed in MT-2 cells; for EC50: Human immunodeficiency virus 1, HXB2, read-out: EC50 in CBMCs
Protocol: as §1

recombinant HXB2-D WT = test: microbe, parasite or virus in culture; type: cell-based, HIV-1; details: Human immunodeficiency virus 1, HXB2, read-out: EC50 in CBMCs
Protocol: as §1

recombinant HXB2-D 184V = test: microbe, parasite or virus in culture; type: cell-based, HIV-1; details: Human immunodeficiency virus 1, HXB2, read-out: EC50 in CBMCs
Protocol: as §1

recombinant HXB2-D 74V = test: microbe, parasite or virus in culture; type: cell-based, HIV-1; details: Human immunodeficiency virus 1, HXB2, read-out: EC50 in CBMCs
Protocol: as §1

[4] = tested on: recombinant HXB2-D 41L/215Y/184V; test: microbe, parasite or virus in culture; type: cell-based, HIV-1; details: for EC50: Human immunodeficiency virus 1, HXB2, read-out: EC50 in CBMCs
Protocol: as §1

[5] = tested on: recombinant HXB2-D 10R/46I/63P/82T/84V; test: microbe, parasite or virus in culture; type: cell-based, HIV-1; details: Human immunodeficiency virus 1, HXB2, read-out: EC50 in CBMCs
Protocol: as §1

[6] = Cytotoxicity, [3H]-thymidine uptake, HT-1080; type: cell-based; details: human, HT-1080 cells
Protocol: as §3

[7] = Cytotoxicity, [3H]-thymidine uptake, PBMC; type: cell-based; details: human, PHA-stimulated PBMCs
Protocol: as §3

HIV-1IIIB = test: Anti-HIV-1 antiviral assay, laboratory strain HIV-1IIIB, RT activity in culture supernatants
Protocol: Most experiments were performed with a laboratory strain HIV-1III. […] The cells were incubated with virus using the indicated multiplicity of infection (MOI) for 2-3 hrs. The MOI used for each experiment was dependent upon the cell line and virus strain used, and was generally in the range of 0.005 to 0.5. For example, in assays performed using the established cell line MT-2, HIV-1IIIB at an MOI of 0.005 was used to infect cells. The unbound virus was then removed by washing the cells, followed by plating the cells into a 96-well plate. The infected cells were cultured in the presence of a serial concentrations of the test compound for 5-7 days. The anti-HIV-1 efficacy was determined by testing for HIV-1 RT activity in the cell culture supernatants. All assays were performed in duplicate and at least two independent experiments were performed. […] The susceptibilities of the HIV-1 variants to antiretroviral agents are expressed as the mean of the EC50 determinations.

[8] = tested on: HIV-1 clinical isolate 4877; test: microbe, parasite or virus in culture; type: cell-based; details: Human immunodeficiency virus 1, read-out: EC50 in CBMCs
Protocol: as §1, §2

[9] = tested on: HIV-1 clinical isolate 3887; test: microbe, parasite or virus in culture; type: cell-based; details: Human immunodeficiency virus 1, read-out: EC50 in CBMCs
Protocol: as §1, §2

[10] = tested on: HIV-1 clinical isolate 4924; test: microbe, parasite or virus in culture; type: cell-based; details: Human immunodeficiency virus 1, read-out: EC50 in CBMCs
Protocol: as §1, §2

[11] = tested on: HIV-1 clinical isolate 4242; test: microbe, parasite or virus in culture; type: cell-based; details: for sensitivity of isolate 4242, in words: 41L/70R/215Y in RT; for EC50: Human immunodeficiency virus 1, read-out: EC50 in CBMCs
Protocol: as §1, §2

[12] = tested on: HIV-1 clinical isolate 3350; test: microbe, parasite or virus in culture; type: cell-based; details: for EC50: Human immunodeficiency virus 1, read-out: EC50 in CBMCs; for decreased susceptibility compared to the lamivudine and AZT sensitive isolates: isolate 3350, 184V
Protocol: as §1, §2

[13] = tested on: HIV-1 clinical isolate 4205; test: microbe, parasite or virus in culture; type: cell-based; details: for EC50: Human immunodeficiency virus 1, read-out: EC50 in CBMCs; for decreased susceptibility compared to the lamivudine and AZT sensitive isolates: isolate 4205, 184V
Protocol: as §1, §2

[14] = tested on: HIV-1 clinical isolate 4833; test: microbe, parasite or virus in culture; type: cell-based; details: Human immunodeficiency virus 1, therapy Saquinavir (48 weeks), read-out: EC50 in CBMCs
Protocol: as §1, §2

[15] = Cytotoxicity, [3H]-thymidine uptake, Molt-4; type: cell-based; details: human, Molt-4 cells
Protocol: as §3

[16] = tested on: HIV-1 clinical isolate 4526; test: Antiviral assay, HIV-1 clinical isolate 4526, CBMCs; type: cell-based; details: Human immunodeficiency virus 1, naive
Protocol: as §1, §2

[17] = Cytotoxicity, [3H]-thymidine uptake, DU145; type: cell-based; details: human, DU145 cells
Protocol: as §3

[18] = Cytotoxicity, [3H]-thymidine uptake, HSF; type: cell-based; details: human, human skin fibroblasts (HSF)
Protocol: as §3

[19] = tested on: recombinant HXB2-D 106A/181C; test: microbe, parasite or virus in culture; type: cell-based, HIV-1; details: Human immunodeficiency virus 1, HXB2, read-out: EC50 in CBMCs
Protocol: as §1

[20] = tested on: CBMCs, MT-2, H9, Jurkat and U937; test: Cytotoxicity, WST-1 cell viability assay; type: cell-based, human; details: WST-1, MT-2, H9, Jurkat and U937
Protocol: The cellular toxicity of the compounds was also tested by WST-1 staining through assessing proliferation of MT-2, H9, Jurkat, U937, and CBMCs. The established cell lines were cultured in RPMI medium in 96-well plates at a density of 5×10^4 cells/well while CBMCs were plated at a concentration of 0.5×10^6/well. A 10-fold serial diluted (10^−4−10^−7 M) compound was added at day zero. At day 4, the cells were passaged by changing half medium containing appropriately diluted compound. The cell activities were assessed at day 7 using the WST-1 reagent (Boehringer Mannheim) following the protocol provided by the supplier.

[21] = Human immunodeficiency virus 1, H9, read-out: EC50, mean values ± SD
[22] = Human immunodeficiency virus 1, Jurkat, read-out: EC50, mean values ± SD
[23] = Human immunodeficiency virus 1, MT2, read-out: EC50, mean values ± SD
[24] = Human immunodeficiency virus 1, MT4, read-out: EC50, mean values ± SD
[25] = Human immunodeficiency virus 1, U-937
[26] = Human immunodeficiency virus 1, read-out: EC50, mean values ± SD

Compound	EC50 [1] [nM]	CC50 at 72 h [2] [nM]	EC50 (recombinant HXB2-D 65R) [nM]	sensitivity of AZT resistant virus, in words [3]	EC50 [3] [nM]	EC50 (recombinant HXB2-D WT) [nM]	EC50 (recombinant HXB2-D 184V) [nM]	EC50 (recombinant HXB2-D 74V) [nM]	EC50 [4] [nM]	EC50 [5] [nM]	CC50 at 72 h [6] [nM]	CC50 at 72 h [7] [nM]	EC50 (HIV-1IIIB; [21]) [nM]	EC50 (HIV-1IIIB; [22]) [nM]	EC50 (HIV-1IIIB; [23]) [nM]	EC50 (HIV-1IIIB; [24]) [nM]	EC50 (HIV-1IIIB; [25]) [nM]	EC50 (HIV-1IIIB; [26]) [nM]	EC50 [8] [nM]	EC50 [9] [nM]	also measured
Nc1nc(N)c2ncn([C@H]3CO[C@@H](CO)O3)c2n1 [DAPD, (−)- -D-2,6-diaminopurine-1,3-dioxolane]	410 ± 20	> 500000	6500 ± 2100	remained completely sensitive	1250 ± 590	1100 ± 160	2100 ± 200	6600 ± 3400	2300 ± 50	1370 ± 60	> 500000	> 500000	75 ± 40	1370 ± 720	540	940 ± 28	1300	970	260	190 ± 120	EC50 fold higher than those for DXG (HIV-1IIIB; various cells): 5-20 fold; EC50 [10]: 170 nM; sensitivity of isolate 4242, in words [11]: remained sensitive; EC50 [11]: 880 ± 300 nM; EC50 [12]: 3300 ± 1200 nM; decreased susceptibility compared to the lamivudine and AZT sensitive isolates [12]: ~5 fold; EC50 [13]: 4100 ± 350 nM; decreased susceptibility compared to the lamivudine and AZT sensitive isolates [13]: ~5 fold; EC50 [14]: 630 ± 380 nM; CC50 at 72 h [15]: > 500000 nM; EC50 [16]: 850 ± 71 nM; CC50 at 72 h [17]: > 500000 nM; CC50 at 72 h [18]: > 500000 nM
Nc1nc2c(ncn2[C@H]2CO[C@@H](CO)O2)c(=O)[nH]1 [DXG, (−)-β-D-1,3-dioxolane guanine]	120 ± 80	> 500000	1200 ± 200	remained completely sensitive	240 ± 20	210 ± 50	440 ± 70	1300 ± 800	410 ± 100	120 ± 30	> 500000	> 500000	60 ± 50	340 ± 140	85	51 ± 9	410	46	45	180 ± 7	decreased sensitivity ([4]; 41L and 215Y combined with 184V): ~2 fold; EC50 [19]: 50 ± 7 nM; no toxicity up to (highest concentration tested) [20]: ≥ 100 µM; anti-HIV-1 efficacy fold less than that of AZT (HIV-1IIIB; various cells): 5-10 fold; EC50 [10]: 20 nM; sensitivity of isolate 4242, in words [11]: remained sensitive; EC50 [11]: 210 ± 7 nM; EC50 [12]: 650 ± 330 nM; decreased susceptibility compared to the lamivudine and AZT sensitive isolates [12]: ~5 fold; EC50 [13]: 1100 ± 1190 nM; decreased susceptibility compared to the lamivudine and AZT sensitive isolates [13]: ~5 fold; EC50 [14]: 170 ± 60 nM; CC50 at 72 h [15]: > 500000 nM; EC50 [16]: 55 ± 27 nM; CC50 at 72 h [17]: > 500000 nM; CC50 at 72 h [18]: ≥ 500000 nM
